Laboratory results from patent publication US7166744B2, “Retinoid derivatives and methods for producing said compounds and anti-cancer pharmaceutical composition comprising said compounds” (Chebigen Co., Ltd., priority 2001, dated 2007).
Entries after “also recorded” stand apart in the source; their conditions may differ.

What was measured:
Format in all cases: cell-based
[1] = system: ZR75-1 breast cancer cells; assay: MTT proliferation assay, ZR75-1
Description: The effects of test compounds on proliferation of various cancer cells was examined by 3-(4,5-dimethylthiazol-2-yl)-2,5-diphenyltetrazolium bromide (MTT, Sigma) assay in a dose dependent manner. In the MTT assay, colon, liver, cervix, ovary, and breast cancer cell lines were treated with test compounds at various concentrations. Living cancer cells reduce MTT to dark blue MTT formazan that would be measured by absorbance.
Colon cancer cells, HCT116, DLD-1 and HT29, cervix cancer cells, HeLa and CaSki, ovary cancer cells, SKOV-3, 2774 and OVCAR-3, liver cancer cells, SK-Hep-1, PLCPRF5 and HepG2, and breast cancer cells, ZR75-1 and MDA-MB 231 were seeded at an initial density of 3000 cells per well in 96-well plates. After attachment of cells to the walls of the wells, the medium containing fresh retinoid was treated with various concentrations (0.5 μM, 1 μM, 2.5 μM, 5 μM, 10 μM) for 48 hours. 50 μl of MTT solution (2 mg/ml in PBS) was added to cell culture media. The reaction micture was incubated at 37° C. in a 5% CO2 atmosphere for 4 hours. The supernatant was removed and 150 μl of DMSO was added. The optical density was measured spectrophotometrically at 550 nm. […] For other retinoid derivatives according to the present invention, absorbances were measured by this procedure and IC50 values, concentrations required for 50% growth inhibition, were determined.

RARα = target: T1, RARα (Homo sapiens, UniProt P10276); assay: CAT reporter assay, RARα; details: 1 μM, control = 1.0; for expression level of CAT enzyme, RARα −: column '−'
T1 construct: expressed in transfected cells
T1 sequence (P10276 1-462): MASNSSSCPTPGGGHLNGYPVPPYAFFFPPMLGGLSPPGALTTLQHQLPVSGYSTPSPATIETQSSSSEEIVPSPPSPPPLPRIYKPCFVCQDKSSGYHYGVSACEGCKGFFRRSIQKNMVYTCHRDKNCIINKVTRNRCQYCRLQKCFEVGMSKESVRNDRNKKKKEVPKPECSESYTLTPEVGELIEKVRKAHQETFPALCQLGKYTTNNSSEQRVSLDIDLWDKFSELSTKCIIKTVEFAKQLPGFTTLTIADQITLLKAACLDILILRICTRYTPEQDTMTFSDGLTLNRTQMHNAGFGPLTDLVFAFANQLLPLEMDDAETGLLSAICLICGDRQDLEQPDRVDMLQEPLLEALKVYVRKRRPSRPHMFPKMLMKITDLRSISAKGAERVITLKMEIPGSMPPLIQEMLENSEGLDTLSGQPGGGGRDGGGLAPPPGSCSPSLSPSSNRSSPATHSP
Source text: (§1) In order to confirm the effect of KCBG60 according to the present invention on retinoid receptor activity, cells were cotransfected with expression vectors of receptor subfamilies and reporter genes. As the reporter gene, chloramphenicol acetyltransferase (CAT) with a transcription control site reactive to respective receptors was used.

RARγ = target: T2, RARγ (Homo sapiens, UniProt P13631); assay: CAT reporter assay, RARγ; details: 1 μM, control = 1.0; for expression level of CAT enzyme, RARγ −: column '−'
T2 construct: expressed in transfected cells
T2 sequence (P13631 1-454): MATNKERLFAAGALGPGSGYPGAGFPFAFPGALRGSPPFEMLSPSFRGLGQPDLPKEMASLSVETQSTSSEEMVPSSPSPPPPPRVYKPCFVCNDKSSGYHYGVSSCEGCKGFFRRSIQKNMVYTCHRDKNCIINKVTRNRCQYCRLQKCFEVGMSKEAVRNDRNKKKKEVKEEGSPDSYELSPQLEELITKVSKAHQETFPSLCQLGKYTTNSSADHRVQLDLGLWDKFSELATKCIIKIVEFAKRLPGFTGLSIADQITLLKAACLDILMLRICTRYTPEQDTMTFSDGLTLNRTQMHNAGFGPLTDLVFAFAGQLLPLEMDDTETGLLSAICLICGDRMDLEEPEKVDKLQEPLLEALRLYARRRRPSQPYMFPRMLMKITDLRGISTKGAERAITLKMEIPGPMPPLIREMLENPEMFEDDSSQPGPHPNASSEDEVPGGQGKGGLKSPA
Source text: as §1

[2] = system: MCF-7 breast cancer cells; assay: DNA fragmentation assay (agarose gel), MCF-7; details: MCF-7, 2.5, 5.0, 10 μM, 48 hours
Description: After treated with each retinoid derivative at various concentrations (2.5, 5.0, 10 μM) for 48 hours, HCT116 or MCF-7 cells were poured in 1 mL of PBS and centrifuged at a rate of 13,000 rpm at 4° C. for 1 min. The resulting cell pellets were resuspended in 700 μl of lysis buffer (500 mM Tris, 100 mM EDTA, 0.5% SDS) containing 17.5 μl of proteinase K (20 mg/ml), and incubated on 55° C. water bath for 3 hours. The lysates were mixed with 700 μl of phenol solution while slowly stirring and centrifuged at 12,000 rpm for 5 min. The supernatants were separated and extracted with phenol once more. The supernatants were mixed with 600 μl of 100% ethanol and 60 μl of 3M NaOAc (pH 7.0) and left at −20° C. for 2 hours. The supernatants were removed by centrifugation at 12,000 rpm for 10 min to obtain pellets. After 70% ethanol washing and drying, DNA pellet was resuspended in 100 μl of TE (Tris-EDTA) buffer and treated with RNase A. The obtained samples were electrophoresed for 2 hours at 75 V on 1.8% agarose gels.

[3] = system: HCT116 colon cancer cells; assay: DAPI staining of nuclei, HCT116; details: for nuclear condensation and fragmentation (DAPI): HCT116, 5 μM, 36 h; for nuclear condensation (DAPI): HCT116, Experimental Example 8
Description: By DAPI (4,6-diamidino-2-phenylindole) staining assay for staining DNA in cellular nucleus, nuclear condensation and fragmentation, characteristic features of apoptosis, were observed. […] In FIG. 4, the control represents non-treated cells. The sub-G1 DNA contents of colon cancer HTC116 cells and breast cancer MCF-7 cells were measured by FACS (Fluorescence-Activated Cell Sorter) assay to quantify the apoptosis (FIG. 5). Finally, in order to further characterize the apoptosis observed in retinoid derivative-treated cells, the cleavage of apoptosis-related proteins, including PARP (poly(ADP-ribose)polymerase) and CPP32 (caspase-3) by Western blotting. […] PARP cleavage occurred in a time-dependent manner, in parallel with the induction of apoptosis (FIG. 6B). C in FIG. 6 represents the result of Western blotting of non-treated cells.
Meanwhile, HPR which is a precursor during the synthesis process of KCBG60 is known to induce apoptosis. Considering that the cells aggregated into small spherical mass upon treatment with KCBG60, KCBG60 is expected to induce apoptosis. In order to confirm apoptosis induced by KCBG60 once again, KCBG60-treated HCT116 cells were stained with DAPI and observed for nuclear condensation, an indicative of apoptosis (FIG. 12).

Compound | IC50 ([1]; Homo sapiens, ZR-75-1, 48 hours) [µM] | expression level of CAT enzyme, RARα + (RARα) | expression level of CAT enzyme, RARα − (RARα) | expression level of CAT enzyme, RARγ + (RARγ) | expression level of CAT enzyme, RARγ − (RARγ) | IC50 ([1]; 48 hours) [µM] | DNA ladder (DNA fragmentation) [2] | nuclear condensation and fragmentation (DAPI) [3] | nuclear condensation (DAPI) [3]
CC1=C(/C=C/C(C)=C/C=C/C(C)=C/C(=O)O)C(C)(C)CCC1 [ATRA, All-trans-retinoic acid, reference compound] | > 500 | 66.7 | 17.3 | 49.3 | 14.1 |  |  |  | 
CC1=C(/C=C/C(C)=C/C=C/C(C)=C/C(=O)Nc2ccc(O)cc2)C(C)(C)CCC1 [HPR, (2E,4E,6E,8E)-[3,7-dimethyl-9-(2,6,6-trimethylcyclohex-1-enyl)-nona-2,4,6,8-tetraenoylamino]-4-hydroxyphenylamide] |  | 30.4 | 9.9 | 24.8 | 4.5 | 15 | did not show any DNA ladder | largely showed nuclear fragmentation | 
CCCC(=O)Oc1cc(O)ccc1NC(=O)/C=C(C)/C=C/C=C(C)/C=C/C1=C(C)CCCC1(C)C [KCBG10, 2.2-[(2E,4E,6E,8E)-3,7-Dimethyl-9-(2,6,6-trimethylcyclohex-1-enyl)-nona-2,4,6,8-tetraenoylamino]-5-hydroxyphenylbutanoate] |  |  |  |  |  | 2 | DNA band of the ladder shape caused by DNA fragmentation was well detected; also recorded: at a low concentration showed DNA fragmentation | largely showed nuclear fragmentation | 
CCCC(=O)Nc1cc(NC(=O)/C=C(C)/C=C/C=C(C)/C=C/C2=C(C)CCCC2(C)C)ccc1O [KCBG41, (2E,4E,6E,8E)-[3,7-dimethyl-9-(2,6,6-trimethylcyclohex-1-enyl)-nona-2,4,6,8-tetraenoylamino]-(3-butyrylamino-4-hydroxy)phenylamide] |  |  |  |  |  | 4.1 | DNA band of the ladder shape caused by DNA fragmentation was well detected | largely showed nuclear fragmentation | 
CCCC(=O)Oc1ccc(NC(=O)/C=C(C)/C=C/C=C(C)/C=C/C2=C(C)CCCC2(C)C)cc1 [KCBG60] |  | 1.1 | 0.7 | 1.9 | 0.6 |  |  |  | showed small spots, indicating nuclear condensation
phenyl butylate |  | 0.8 | 0.7 | 1.1 | 0.8 |  |  |  | nuclei were observed normal
